From US20250108038A1 (priority 2023, published 2025)
Several values for one entry are separate records, joined by “and”; a condition that tells them apart may be missing. Identical values can stand only once.

System: Long Evans rats
Assay: Behavioral satiety sequence (BSS)
Format: in vivo, Long Evans rat
Description: The Behavioural Satiety Sequence (BSS) is a technique used to evaluate physiological satiety. It is based on the expression of a sequence of behaviors including eating, grooming, locomotor activity, followed by resting, which are typically observed in rodents post-ingestion (Halford et al, 1998, Pharmacology Biochemistry and Behaviour. 61(2): 159-168). The BSS is a widely used model for determining the effects of novel pharmaceuticals on food intake and measures of satiety in rodents (Oliveira et al, 2011, Revista de Nutrição. 24(4) 619-628), and to discriminate the cause of reduced food intake following pharmacological manipulation. For example, treatments that may reduce food intake by non-specific mechanisms, such as immobility, malaise, and taste adulteration, will disrupt this sequence (Halford et al, 1998, Pharmacology Biochemistry and Behaviour. 61(2): 159-168).
Specifically, 12 male Long-Evans rats were food-deprived for 22 h with a 2 h feeding period each day. Rats were trained to consume daily food during the 2 h period over 25 days. The testing phase was initiated once the rats consistently consumed 16-18 g of food per day with ≤10% variance in amount of feed consumed. Feeding took place in designated individual boxes in a quiet room separate from the housing room. Continuous remote monitoring via video camera during feeding was used to assess the BSS. Food consumption was measured by weighing the total available food before and after the 2 h feeding window, correcting for spillage. Lorcaserin (1 mg/kg) was included as a reference control (Higgins et al, 2011, Neuropsychopharmacology. 37(5): 1177-1191). Subjects were tested using a repeated-measures, Latin square design with 2-3 days wash-out between treatment cycles.
On scheduled test days, animals were monitored remotely via video camera during the feeding access period. The occurrence of four mutually exclusive behaviors (eating/drinking, grooming, active, rest) were individually scored. Over the 2 h feeding period, behaviors were assessed every 30 seconds. Scores were compiled into 23 5 min timebins (timebin 24 was removed due to early removal of animals) and the frequency of each behavior within each timebin was calculated to determine a temporal frequency of each measure (Rodgers et al, 2010, Pharmacology Biochemistry and Behaviour. 97: 3-14). Percentage time was plotted for each behavioral sequence in each timebin to compare between treatment groups (Higgins et al, 2011, Neuropsychopharmacology. 37(5): 1177-1191).

[1] = Compound I-19 3 mg/kg i.p., raw score per animal
[2] = Compound I-19 3 mg/kg, AVG of 12 animals
[3] = Compound I-19 3 mg/kg, raw score of individual animals LT-1 to LT-12
[4] = Compound I-19 i.p., first dose group after lorcaserin (dose not given), raw score per animal

Clc1ccc(C2(OCC3OCCO3)c3ccccc3C3=NCCN32)cc1 (stereo not shown) [Compound I-19]
BSS scoring R (resting), Time Bin 4 (15-20 TOTAL) [1]: 1 (2×) and 0 (10×) | BSS scoring R (resting), Time Bin 5 (20-25 TOTAL) [1]: 0 (10×) and 1 (2×) | BSS scoring R (resting), Time Bin 6 (25-30 TOTAL) [1]: 0 (9×) and 1 and 2 (2×) | BSS scoring A (active), Time Bin 13 (60-65 TOTAL), AVG [2]: 0.18 | BSS scoring A (active), Time Bin 14 (65-70 TOTAL), AVG [2]: 0.15 | BSS scoring A (active), Time Bin 15 (70-75 TOTAL), AVG [2]: 0.28 | BSS scoring A (active), Time Bin 16 (75-80 TOTAL), AVG [2]: 0.03 | BSS scoring A (active), Time Bin 17 (80-85 TOTAL), AVG [2]: 0.18 | BSS scoring A (active), Time Bin 18 (85-90 TOTAL), AVG [2]: 0.12 | BSS scoring E (eating/drinking), Time Bin 13 (60-65 TOTAL), AVG [2]: 0.72 | BSS scoring E (eating/drinking), Time Bin 14 (65-70 TOTAL), AVG [2]: 0.63 | BSS scoring E (eating/drinking), Time Bin 15 (70-75 TOTAL), AVG [2]: 0.53 | BSS scoring E (eating/drinking), Time Bin 16 (75-80 TOTAL), AVG [2]: 0.71 | BSS scoring E (eating/drinking), Time Bin 17 (80-85 TOTAL), AVG [2]: 0.63 | BSS scoring E (eating/drinking), Time Bin 18 (85-90 TOTAL), AVG [2]: 0.65 | BSS scoring G (grooming), Time Bin 13 (60-65 TOTAL), AVG [2]: 0.02 | BSS scoring G (grooming), Time Bin 14 (65-70 TOTAL), AVG [2]: 0.02 | BSS scoring G (grooming), Time Bin 15 (70-75 TOTAL), AVG [2]: 0.06 | BSS scoring G (grooming), Time Bin 16 (75-80 TOTAL), AVG [2]: 0.05 | BSS scoring G (grooming), Time Bin 17 (80-85 TOTAL), AVG [2]: 0.03 | BSS scoring G (grooming), Time Bin 18 (85-90 TOTAL), AVG [2]: 0.07 | BSS scoring R (resting), Time Bin 13 (60-65 TOTAL), AVG [2]: 0.09 | BSS scoring R (resting), Time Bin 14 (65-70 TOTAL), AVG [2]: 0.21 | BSS scoring R (resting), Time Bin 15 (70-75 TOTAL), AVG [2]: 0.13 | BSS scoring R (resting), Time Bin 16 (75-80 TOTAL), AVG [2]: 0.22 | BSS scoring R (resting), Time Bin 17 (80-85 TOTAL), AVG [2]: 0.17 | BSS scoring R (resting), Time Bin 18 (85-90 TOTAL), AVG [2]: 0.17 | BSS scoring A (active), Time Bin 13 (60-65 TOTAL) [3]: 3 and 0 (3×) and 2 (4×) and 1 (2×) and 4 (2×) | BSS scoring A (active), Time Bin 14 (65-70 TOTAL) [3]: 8 and 0 (5×) and 1 (5×) and 5 | BSS scoring A (active), Time Bin 15 (70-75 TOTAL) [3]: 3 (2×) and 0 (5×) and 5 (3×) and 4 and 9 | BSS scoring A (active), Time Bin 16 (75-80 TOTAL) [3]: 0 (10×) and 1 and 2 | BSS scoring A (active), Time Bin 17 (80-85 TOTAL) [3]: 0 (6×) and 8 and 2 and 3 and 4 (2×) and 1 | BSS scoring A (active), Time Bin 18 (85-90 TOTAL) [3]: 0 (7×) and 2 and 3 (2×) and 1 and 5 | BSS scoring E (eating/drinking), Time Bin 13 (60-65 TOTAL) [3]: 6 (3×) and 8 (4×) and 7 and 9 and 10 (2×) and 0 | BSS scoring E (eating/drinking), Time Bin 14 (65-70 TOTAL) [3]: 2 (2×) and 8 (2×) and 9 (3×) and 10 and 3 (2×) and 7 and 5 | BSS scoring E (eating/drinking), Time Bin 15 (70-75 TOTAL) [3]: 7 (3×) and 9 and 8 and 5 (2×) and 0 (3×) and 6 and 10 | BSS scoring E (eating/drinking), Time Bin 16 (75-80 TOTAL) [3]: 10 (4×) and 8 (3×) and 3 and 0 and 2 and 9 and 7 | BSS scoring E (eating/drinking), Time Bin 17 (80-85 TOTAL) [3]: 7 and 2 and 8 and 10 (4×) and 0 (2×) and 3 and 6 and 9 | BSS scoring E (eating/drinking), Time Bin 18 (85-90 TOTAL) [3]: 10 (4×) and 8 (2×) and 5 (2×) and 0 (2×) and 9 and 3 | BSS scoring G (grooming), Time Bin 13 (60-65 TOTAL) [3]: 1 (2×) and 0 (10×) | BSS scoring G (grooming), Time Bin 14 (65-70 TOTAL) [3]: 0 (11×) and 2 | BSS scoring G (grooming), Time Bin 15 (70-75 TOTAL) [3]: 0 (8×) and 1 (3×) and 4 | BSS scoring G (grooming), Time Bin 16 (75-80 TOTAL) [3]: 0 (8×) and 1 (3×) and 3 | BSS scoring G (grooming), Time Bin 17 (80-85 TOTAL) [3]: 0 (10×) and 1 and 2 | BSS scoring G (grooming), Time Bin 18 (85-90 TOTAL) [3]: 0 (8×) and 4 and 1 (2×) and 2 | BSS scoring R (resting), Time Bin 13 (60-65 TOTAL) [3]: 0 (8×) and 2 (2×) and 1 and 6 | BSS scoring R (resting), Time Bin 14 (65-70 TOTAL) [3]: 0 (4×) and 2 (3×) and 1 (2×) and 6 and 7 and 4 | BSS scoring R (resting), Time Bin 15 (70-75 TOTAL) [3]: 0 (8×) and 2 and 5 (2×) and 3 | BSS scoring R (resting), Time Bin 16 (75-80 TOTAL) [3]: 0 (4×) and 1 (4×) and 3 and 9 and 2 and 8 | BSS scoring R (resting), Time Bin 17 (80-85 TOTAL) [3]: 3 (2×) and 0 (7×) and 1 and 8 and 5 | BSS scoring R (resting), Time Bin 18 (85-90 TOTAL) [3]: 0 (7×) and 2 (2×) and 6 and 9 and 1 | effect on the behavioral satiety sequence (BSS) (Compound I-19 0.1-3 mg/kg IP, lorcaserin 1 mg/kg SC): did not affect the BSS compared to vehicle pretreatment | BSS scoring A (active), Time Bin 7 (30-35 TOTAL) [4]: 2 and 0 | BSS scoring A (active), Time Bin 8 (35-40 TOTAL) [4]: 2 and 0 | BSS scoring A (active), Time Bin 9 (40-45 TOTAL) [4]: 1 and 2 | BSS scoring A (active), Time Bin 10 (45-50 TOTAL) [4]: 1 | BSS scoring A (active), Time Bin 11 (50-55 TOTAL) [4]: 1 and 0 | BSS scoring A (active), Time Bin 12 (55-60 TOTAL) [4]: 1 and 2 | BSS scoring E (eating/drinking), Time Bin 7 (30-35 TOTAL) [4]: 6 and 9 | BSS scoring E (eating/drinking), Time Bin 8 (35-40 TOTAL) [4]: 6 and 9 | BSS scoring E (eating/drinking), Time Bin 9 (40-45 TOTAL) [4]: 9 and 6 | BSS scoring E (eating/drinking), Time Bin 10 (45-50 TOTAL) [4]: 7 | BSS scoring E (eating/drinking), Time Bin 11 (50-55 TOTAL) [4]: 8 and 10 | BSS scoring E (eating/drinking), Time Bin 12 (55-60 TOTAL) [4]: 5 and 8 | BSS scoring G (grooming), Time Bin 7 (30-35 TOTAL) [4]: 0 and 1 | BSS scoring G (grooming), Time Bin 8 (35-40 TOTAL) [4]: 1 | BSS scoring G (grooming), Time Bin 9 (40-45 TOTAL) [4]: 0 and 1 | BSS scoring G (grooming), Time Bin 10 (45-50 TOTAL) [4]: 1 | BSS scoring G (grooming), Time Bin 11 (50-55 TOTAL) [4]: 0 | BSS scoring G (grooming), Time Bin 12 (55-60 TOTAL) [4]: 1 and 0 | BSS scoring R (resting), Time Bin 7 (30-35 TOTAL) [4]: 2 and 0 | BSS scoring R (resting), Time Bin 8 (35-40 TOTAL) [4]: 1 and 0 | BSS scoring R (resting), Time Bin 9 (40-45 TOTAL) [4]: 0 and 1 | BSS scoring R (resting), Time Bin 10 (45-50 TOTAL) [4]: 1 | BSS scoring R (resting), Time Bin 11 (50-55 TOTAL) [4]: 1 and 0 | BSS scoring R (resting), Time Bin 12 (55-60 TOTAL) [4]: 3 and 0
